Measured values published in publication PMC5513037, “Examining the influence of specificity ligands and ATP-competitive ligands on the overall effectiveness of bivalent kinase inhibitors” (Proteome Science, 2017).
pIC50: −log10 of the molar value.

How the values were obtained:
SRC = molecular target: T1, SRC (Homo sapiens, UniProt P12931); experiment: KAM-matrix competition in K562 lysate; type: binding
T1 construct: endogenous in cells; host or cells: K562
Method: (§1) Supplement 12953_2017_125_MOESM1_ESM.zip/MS_Supp Info.xlsx, sheet "KAM" | column: 10 uM KAM; 1 uM KAM; 0.1 uM KAM; 0.01 uM KAM; 0.001 uM KAM; RB50

MAPK7 = molecular target: T2, MAPK7 (Homo sapiens, UniProt Q13164); experiment: KAM-matrix competition in K562 lysate; type: binding;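 for 0.001 uM KAM: median log10 fold change of treatment over DMSO control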;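 for 0.01 uM KAM: median log10 fold change of treatment over DMSO control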;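 for 0.1 uM KAM: median log10 fold change of treatment over DMSO control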;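 for 1 uM KAM: median log10 fold change of treatment over DMSO control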;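 for 10 uM KAM: median log10 fold change of treatment over DMSO control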
T2 construct: endogenous in cells; host or cells: K562
Method: as §1

INSR = molecular target: T3, INSR (Homo sapiens, UniProt P06213); experiment: KAM-matrix competition in K562 lysate; type: binding;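 for 0.001 uM KAM: median log10 fold change of treatment over DMSO control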;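 for 0.01 uM KAM: median log10 fold change of treatment over DMSO control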;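 for 0.1 uM KAM: median log10 fold change of treatment over DMSO control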;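 for 1 uM KAM: median log10 fold change of treatment over DMSO control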;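 for 10 uM KAM: median log10 fold change of treatment over DMSO control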
T3 construct: endogenous in cells; host or cells: K562
Method: as §1

TNK2 = molecular target: T4, TNK2 (Homo sapiens, UniProt Q07912); experiment: KAM-matrix competition in K562 lysate; type: binding;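 for 0.001 uM KAM: median log10 fold change of treatment over DMSO control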;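 for 0.01 uM KAM: median log10 fold change of treatment over DMSO control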;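 for 0.1 uM KAM: median log10 fold change of treatment over DMSO control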;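 for 1 uM KAM: median log10 fold change of treatment over DMSO control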;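 for 10 uM KAM: median log10 fold change of treatment over DMSO control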
T4 construct: endogenous in cells; host or cells: K562
Method: as §1

RIPK2 = molecular target: T5, RIPK2 (Homo sapiens, UniProt O43353); experiment: KAM-matrix competition in K562 lysate; type: binding
T5 construct: endogenous in cells; host or cells: K562
Method: as §1

STK17A = molecular target: T6, STK17A (Homo sapiens, UniProt Q9UEE5); experiment: KAM-matrix competition in K562 lysate; type: binding
T6 construct: endogenous in cells; host or cells: K562 cell lysate
T6 sequence (Q9UEE5 1-414): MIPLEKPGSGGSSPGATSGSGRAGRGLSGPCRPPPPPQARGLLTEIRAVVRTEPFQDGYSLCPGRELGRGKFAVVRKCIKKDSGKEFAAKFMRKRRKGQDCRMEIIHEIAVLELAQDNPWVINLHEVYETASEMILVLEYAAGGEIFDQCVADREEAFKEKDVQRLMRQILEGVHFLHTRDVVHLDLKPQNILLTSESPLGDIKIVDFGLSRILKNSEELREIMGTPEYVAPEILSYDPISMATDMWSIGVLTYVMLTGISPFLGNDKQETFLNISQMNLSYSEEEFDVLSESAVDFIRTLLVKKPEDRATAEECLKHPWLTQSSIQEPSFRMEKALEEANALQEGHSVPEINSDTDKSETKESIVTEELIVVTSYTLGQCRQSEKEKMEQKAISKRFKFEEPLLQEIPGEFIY
Method: as §1

PHKG2 = molecular target: T7, PHKG2 (Homo sapiens, UniProt P15735); experiment: KAM-matrix competition in K562 lysate; type: binding
T7 construct: endogenous in cells; host or cells: K562 cell lysate
T7 sequence (P15735 1-406): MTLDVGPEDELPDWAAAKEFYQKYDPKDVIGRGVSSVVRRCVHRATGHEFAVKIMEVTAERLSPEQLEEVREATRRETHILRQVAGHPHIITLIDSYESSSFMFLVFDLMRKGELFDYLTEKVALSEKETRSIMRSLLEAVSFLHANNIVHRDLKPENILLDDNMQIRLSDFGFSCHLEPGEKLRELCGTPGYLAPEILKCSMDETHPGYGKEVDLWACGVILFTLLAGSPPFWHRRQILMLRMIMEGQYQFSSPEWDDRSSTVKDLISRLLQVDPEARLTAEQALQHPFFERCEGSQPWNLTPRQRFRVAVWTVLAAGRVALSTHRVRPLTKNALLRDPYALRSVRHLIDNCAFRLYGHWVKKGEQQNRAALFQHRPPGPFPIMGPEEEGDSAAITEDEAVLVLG
Method: as §1

MAP4K4 = molecular target: T8, MAP4K4 (Homo sapiens, UniProt O95819); experiment: KAM-matrix competition in K562 lysate; type: binding;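 for 0.001 uM KAM: median log10 fold change of treatment over DMSO control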;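 for 0.01 uM KAM: median log10 fold change of treatment over DMSO control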;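 for 0.1 uM KAM: median log10 fold change of treatment over DMSO control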;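 for 1 uM KAM: median log10 fold change of treatment over DMSO control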;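 for 10 uM KAM: median log10 fold change of treatment over DMSO control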
T8 construct: endogenous in cells; host or cells: K562
Method: as §1

TLK2 = molecular target: T9, TLK2 (Homo sapiens, UniProt Q86UE8); experiment: KAM-matrix competition in K562 lysate; type: binding;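 for 0.001 uM KAM: median log10 fold change of treatment over DMSO control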;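 for 0.01 uM KAM: median log10 fold change of treatment over DMSO control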;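 for 0.1 uM KAM: median log10 fold change of treatment over DMSO control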;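 for 1 uM KAM: median log10 fold change of treatment over DMSO control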;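 for 10 uM KAM: median log10 fold change of treatment over DMSO control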
T9 construct: endogenous in cells; host or cells: K562
Method: as §1

STK17B = molecular target: T10, STK17B (Homo sapiens, UniProt O94768); experiment: KAM-matrix competition in K562 lysate; type: binding
T10 construct: endogenous in cells; host or cells: K562 cells (lysate)
T10 sequence (O94768 1-372): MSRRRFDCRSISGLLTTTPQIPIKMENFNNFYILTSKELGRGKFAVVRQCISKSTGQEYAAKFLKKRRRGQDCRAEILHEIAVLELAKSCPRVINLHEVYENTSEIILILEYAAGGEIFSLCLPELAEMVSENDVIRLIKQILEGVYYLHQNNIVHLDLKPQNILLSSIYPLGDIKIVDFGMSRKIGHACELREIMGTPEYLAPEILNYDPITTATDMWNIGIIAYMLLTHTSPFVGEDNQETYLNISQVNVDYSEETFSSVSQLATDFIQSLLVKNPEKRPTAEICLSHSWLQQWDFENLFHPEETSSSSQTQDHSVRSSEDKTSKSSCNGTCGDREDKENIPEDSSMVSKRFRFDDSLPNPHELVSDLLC
Method: as §1

[1] = KAM-matrix competition in K562 lysate; type: binding, human; settings: read-out: RB50 (the source's name)
Method: as §1

CAMK2G = molecular target: T11, CAMK2G (Homo sapiens, UniProt Q13555); experiment: KAM-matrix competition in K562 lysate; type: binding;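 for 0.001 uM KAM: median log10 fold change of treatment over DMSO control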;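 for 0.01 uM KAM: median log10 fold change of treatment over DMSO control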;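 for 0.1 uM KAM: median log10 fold change of treatment over DMSO control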;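 for 1 uM KAM: median log10 fold change of treatment over DMSO control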;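 for 10 uM KAM: median log10 fold change of treatment over DMSO control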
T11 construct: endogenous in cells; host or cells: K562
Method: as §1

[2] = read-out: RB50 (the source's name)
[3] = KAM 0.001-10 uM, read-out: RB50 (the source's name)

T9 sequence (Q86UE8 whole entry): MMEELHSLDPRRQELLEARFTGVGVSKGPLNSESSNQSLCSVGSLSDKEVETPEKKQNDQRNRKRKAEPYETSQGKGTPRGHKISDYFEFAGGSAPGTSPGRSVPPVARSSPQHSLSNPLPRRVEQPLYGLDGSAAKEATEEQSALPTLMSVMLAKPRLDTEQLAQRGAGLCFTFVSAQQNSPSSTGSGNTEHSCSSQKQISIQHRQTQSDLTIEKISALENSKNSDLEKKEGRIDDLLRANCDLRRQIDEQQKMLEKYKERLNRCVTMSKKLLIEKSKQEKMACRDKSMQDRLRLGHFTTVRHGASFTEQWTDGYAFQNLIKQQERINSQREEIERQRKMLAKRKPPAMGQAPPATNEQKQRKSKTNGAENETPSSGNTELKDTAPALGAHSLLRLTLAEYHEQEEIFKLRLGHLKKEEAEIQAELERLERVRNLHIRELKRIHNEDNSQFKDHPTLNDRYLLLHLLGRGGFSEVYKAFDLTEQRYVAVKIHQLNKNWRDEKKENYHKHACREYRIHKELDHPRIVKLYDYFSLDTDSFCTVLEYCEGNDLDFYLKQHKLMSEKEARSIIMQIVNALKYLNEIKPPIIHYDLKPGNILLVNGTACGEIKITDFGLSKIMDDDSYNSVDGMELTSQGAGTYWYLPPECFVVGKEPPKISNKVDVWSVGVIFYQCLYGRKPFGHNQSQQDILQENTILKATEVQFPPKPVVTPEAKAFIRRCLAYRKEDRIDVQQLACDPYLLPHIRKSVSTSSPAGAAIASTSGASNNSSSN
T11 sequence (Q13555 whole entry): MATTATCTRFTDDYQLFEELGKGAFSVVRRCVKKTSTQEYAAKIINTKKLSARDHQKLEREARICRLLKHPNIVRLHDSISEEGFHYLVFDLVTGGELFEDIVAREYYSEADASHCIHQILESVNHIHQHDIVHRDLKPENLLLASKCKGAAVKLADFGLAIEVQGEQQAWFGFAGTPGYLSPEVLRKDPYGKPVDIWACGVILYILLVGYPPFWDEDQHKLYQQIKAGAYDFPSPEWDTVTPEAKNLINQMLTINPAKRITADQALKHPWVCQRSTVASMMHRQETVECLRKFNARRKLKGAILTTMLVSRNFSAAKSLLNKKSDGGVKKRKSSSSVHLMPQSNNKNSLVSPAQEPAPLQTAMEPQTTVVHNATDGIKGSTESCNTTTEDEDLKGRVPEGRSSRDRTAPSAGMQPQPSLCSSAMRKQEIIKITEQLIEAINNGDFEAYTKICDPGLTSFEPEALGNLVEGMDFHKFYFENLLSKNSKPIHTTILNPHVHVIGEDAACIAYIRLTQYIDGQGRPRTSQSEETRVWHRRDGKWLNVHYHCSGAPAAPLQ
T5 sequence (O43353 whole entry): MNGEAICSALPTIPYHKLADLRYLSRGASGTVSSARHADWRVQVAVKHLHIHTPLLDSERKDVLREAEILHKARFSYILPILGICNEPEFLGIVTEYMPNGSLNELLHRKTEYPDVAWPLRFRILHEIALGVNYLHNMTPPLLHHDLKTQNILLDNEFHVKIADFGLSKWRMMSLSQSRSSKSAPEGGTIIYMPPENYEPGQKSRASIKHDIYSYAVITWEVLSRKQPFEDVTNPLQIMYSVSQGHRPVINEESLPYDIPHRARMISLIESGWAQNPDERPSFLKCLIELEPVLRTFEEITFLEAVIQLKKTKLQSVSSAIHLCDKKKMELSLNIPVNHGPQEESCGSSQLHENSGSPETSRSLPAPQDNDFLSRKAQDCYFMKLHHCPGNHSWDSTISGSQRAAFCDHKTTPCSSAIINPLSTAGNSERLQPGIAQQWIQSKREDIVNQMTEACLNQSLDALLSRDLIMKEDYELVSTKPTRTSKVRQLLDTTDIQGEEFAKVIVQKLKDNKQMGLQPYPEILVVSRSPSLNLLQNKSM
T1 sequence (P12931 whole entry): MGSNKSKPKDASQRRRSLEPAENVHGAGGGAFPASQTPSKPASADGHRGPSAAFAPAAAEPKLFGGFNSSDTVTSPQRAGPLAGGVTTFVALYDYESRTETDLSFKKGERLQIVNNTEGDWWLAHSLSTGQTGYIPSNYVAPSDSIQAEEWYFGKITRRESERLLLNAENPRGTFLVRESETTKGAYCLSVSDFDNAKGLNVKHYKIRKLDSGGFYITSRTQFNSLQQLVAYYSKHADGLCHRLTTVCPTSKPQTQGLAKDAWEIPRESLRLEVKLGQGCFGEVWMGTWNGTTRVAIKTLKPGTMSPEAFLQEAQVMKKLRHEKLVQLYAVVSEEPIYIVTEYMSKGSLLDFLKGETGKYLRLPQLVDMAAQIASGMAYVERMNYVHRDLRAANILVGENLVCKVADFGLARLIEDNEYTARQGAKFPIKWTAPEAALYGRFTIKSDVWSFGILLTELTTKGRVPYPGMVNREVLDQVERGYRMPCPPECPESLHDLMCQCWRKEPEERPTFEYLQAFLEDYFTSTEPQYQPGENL
T4 sequence (Q07912 whole entry): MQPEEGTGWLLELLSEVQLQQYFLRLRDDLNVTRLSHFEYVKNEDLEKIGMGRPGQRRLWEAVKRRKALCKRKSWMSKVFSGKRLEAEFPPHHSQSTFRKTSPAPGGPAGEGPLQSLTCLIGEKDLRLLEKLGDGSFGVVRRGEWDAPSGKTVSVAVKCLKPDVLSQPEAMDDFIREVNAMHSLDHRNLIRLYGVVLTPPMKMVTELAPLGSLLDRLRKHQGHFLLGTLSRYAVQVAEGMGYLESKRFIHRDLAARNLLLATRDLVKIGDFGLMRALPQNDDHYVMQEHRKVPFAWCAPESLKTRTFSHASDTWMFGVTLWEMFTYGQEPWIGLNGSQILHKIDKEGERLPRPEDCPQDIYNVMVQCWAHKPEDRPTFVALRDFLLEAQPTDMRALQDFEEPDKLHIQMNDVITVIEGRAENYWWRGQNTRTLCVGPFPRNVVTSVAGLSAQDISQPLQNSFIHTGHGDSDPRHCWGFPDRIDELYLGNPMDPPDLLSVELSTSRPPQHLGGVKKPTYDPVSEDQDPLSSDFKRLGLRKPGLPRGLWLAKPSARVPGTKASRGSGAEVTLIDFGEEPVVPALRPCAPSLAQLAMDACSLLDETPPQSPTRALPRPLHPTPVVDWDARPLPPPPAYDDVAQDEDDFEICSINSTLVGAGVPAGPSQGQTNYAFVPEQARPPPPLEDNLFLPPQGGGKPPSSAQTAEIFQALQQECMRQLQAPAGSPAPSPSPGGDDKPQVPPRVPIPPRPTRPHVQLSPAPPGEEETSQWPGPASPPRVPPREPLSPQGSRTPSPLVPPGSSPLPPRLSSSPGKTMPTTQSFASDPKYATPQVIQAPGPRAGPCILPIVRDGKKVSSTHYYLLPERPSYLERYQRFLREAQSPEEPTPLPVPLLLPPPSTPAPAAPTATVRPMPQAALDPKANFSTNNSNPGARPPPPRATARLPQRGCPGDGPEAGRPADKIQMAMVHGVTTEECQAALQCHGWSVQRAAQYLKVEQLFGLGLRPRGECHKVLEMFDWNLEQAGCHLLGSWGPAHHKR
T2 sequence (Q13164 whole entry): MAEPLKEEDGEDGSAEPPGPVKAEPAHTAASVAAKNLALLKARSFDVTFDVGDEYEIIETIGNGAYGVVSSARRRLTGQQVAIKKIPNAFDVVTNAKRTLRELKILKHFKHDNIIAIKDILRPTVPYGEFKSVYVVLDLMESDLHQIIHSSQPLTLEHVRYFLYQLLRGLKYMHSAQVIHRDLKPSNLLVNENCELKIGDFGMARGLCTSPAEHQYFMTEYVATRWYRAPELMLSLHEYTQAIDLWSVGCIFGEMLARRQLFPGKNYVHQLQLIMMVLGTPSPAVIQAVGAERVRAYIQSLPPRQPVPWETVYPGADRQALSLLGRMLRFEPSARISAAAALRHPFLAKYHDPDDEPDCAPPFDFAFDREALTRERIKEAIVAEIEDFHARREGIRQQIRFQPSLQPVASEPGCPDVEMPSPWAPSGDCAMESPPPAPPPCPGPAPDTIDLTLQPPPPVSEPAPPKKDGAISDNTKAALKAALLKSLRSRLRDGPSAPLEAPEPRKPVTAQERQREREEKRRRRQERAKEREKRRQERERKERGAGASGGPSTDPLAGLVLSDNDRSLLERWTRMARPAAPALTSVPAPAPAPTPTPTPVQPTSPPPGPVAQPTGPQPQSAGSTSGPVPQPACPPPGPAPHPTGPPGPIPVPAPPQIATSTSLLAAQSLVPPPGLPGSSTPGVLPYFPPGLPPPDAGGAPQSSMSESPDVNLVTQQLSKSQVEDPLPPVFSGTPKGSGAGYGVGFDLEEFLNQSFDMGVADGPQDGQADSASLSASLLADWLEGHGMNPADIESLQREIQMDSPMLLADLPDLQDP

Compound: N#CCc1ccc(Nc2nc(NCCCN)cc(Nc3cc(C4CC4)[nH]n3)n2)cc1 [KAM]
- median Log10 fold change (SRC; 0.001 uM KAM): -0.003111
- median Log10 fold change (SRC; 0.01 uM KAM): -0.02243
- median Log10 fold change (SRC; 0.1 uM KAM): -0.1125
- median Log10 fold change (SRC; 1 uM KAM): -0.3083
- median Log10 fold change (SRC; 10 uM KAM): -0.5006
- pIC50 (SRC; [2]): 5.96
- pIC50 (MAPK7; [3]): < 5.00
- 0.001 uM KAM (MAPK7; relative to 0 uM KAM = 0): -0.02869
- 0.01 uM KAM (MAPK7; relative to 0 uM KAM = 0): 0.01229
- 0.1 uM KAM (MAPK7; relative to 0 uM KAM = 0): -0.142
- 1 uM KAM (MAPK7; relative to 0 uM KAM = 0): -0.1326
- 10 uM KAM (MAPK7; relative to 0 uM KAM = 0): -0.1898
- pIC50 (INSR; [3]): < 5.00
- 0.001 uM KAM (INSR; relative to 0 uM KAM = 0): -0.0389
- 0.01 uM KAM (INSR; relative to 0 uM KAM = 0): 0.002129
- 0.1 uM KAM (INSR; relative to 0 uM KAM = 0): -0.09696
- 1 uM KAM (INSR; relative to 0 uM KAM = 0): -0.2508
- 10 uM KAM (INSR; relative to 0 uM KAM = 0): -0.2556
- pIC50 (TNK2; [3]): < 5.00
- 0.001 uM KAM (TNK2; relative to 0 uM KAM = 0): 0.001973
- 0.01 uM KAM (TNK2; relative to 0 uM KAM = 0): -0.007052
- 0.1 uM KAM (TNK2; relative to 0 uM KAM = 0): -0.06006
- 1 uM KAM (TNK2; relative to 0 uM KAM = 0): -0.2026
- 10 uM KAM (TNK2; relative to 0 uM KAM = 0): -0.2086
- median Log10 fold change (RIPK2; 0.001 uM KAM): 0.003964
- median Log10 fold change (RIPK2; 0.01 uM KAM): -0.006424
- median Log10 fold change (RIPK2; 0.1 uM KAM): -0.0711
- median Log10 fold change (RIPK2; 1 uM KAM): -0.241
- median Log10 fold change (RIPK2; 10 uM KAM): -0.4874
- pIC50 (RIPK2; [2]): 5.73
- median Log10 fold change (STK17A; 0.001 uM KAM): -0.02395
- median Log10 fold change (STK17A; 0.01 uM KAM): -0.004192
- median Log10 fold change (STK17A; 0.1 uM KAM): -0.2117
- median Log10 fold change (STK17A; 1 uM KAM): -0.3947
- median Log10 fold change (STK17A; 10 uM KAM): -0.5099
- pIC50 (STK17A; [2]): 6.34
- median Log10 fold change (PHKG2; 0.001 uM KAM): 0.003099
- median Log10 fold change (PHKG2; 0.01 uM KAM): -0.03027
- median Log10 fold change (PHKG2; 0.1 uM KAM): -0.2223
- median Log10 fold change (PHKG2; 1 uM KAM): -0.4221
- median Log10 fold change (PHKG2; 10 uM KAM): -0.5566
- pIC50 (PHKG2; [2]): 6.47
- pIC50 (MAP4K4; [3]): < 5.00
- 0.001 uM KAM (MAP4K4; relative to 0 uM KAM = 0): -0.04181
- 0.01 uM KAM (MAP4K4; relative to 0 uM KAM = 0): -0.007384
- 0.1 uM KAM (MAP4K4; relative to 0 uM KAM = 0): -0.1078
- 1 uM KAM (MAP4K4; relative to 0 uM KAM = 0): -0.1201
- 10 uM KAM (MAP4K4; relative to 0 uM KAM = 0): -0.1434
- pIC50 (TLK2; [3]): < 5.00
- 0.001 uM KAM (TLK2; relative to 0 uM KAM = 0): -0.002954
- 0.01 uM KAM (TLK2; relative to 0 uM KAM = 0): -0.03195
- 0.1 uM KAM (TLK2; relative to 0 uM KAM = 0): -0.07515
- 1 uM KAM (TLK2; relative to 0 uM KAM = 0): 0.001633
- 10 uM KAM (TLK2; relative to 0 uM KAM = 0): -0.09222
- median Log10 fold change (STK17B; 0.001 uM KAM): 0.02659
- median Log10 fold change (STK17B; 0.01 uM KAM): 0.008023
- median Log10 fold change (STK17B; 0.1 uM KAM): -0.1097
- median Log10 fold change (STK17B; 1 uM KAM): -0.3588
- median Log10 fold change (STK17B; 10 uM KAM): -0.5971
- pIC50 (STK17B; [2]): 6.10
- pIC50 [1]: 6.36
- pIC50 (CAMK2G; [3]): < 5.00
- 0.001 uM KAM (CAMK2G; relative to 0 uM KAM = 0): -0.0014
- 0.01 uM KAM (CAMK2G; relative to 0 uM KAM = 0): 0.01571
- 0.1 uM KAM (CAMK2G; relative to 0 uM KAM = 0): -0.03365
- 1 uM KAM (CAMK2G; relative to 0 uM KAM = 0): -0.07588
- 10 uM KAM (CAMK2G; relative to 0 uM KAM = 0): -0.2109
